Patent US20030144346A1, “Methods and compositions for regulation of 5-alpha reductase activity” (priority 1997, published 2003)
Read-outs that look alike come from different tables or passages of the source. Each block holds one compound with its values, some of them ahead of it.

Tests used:
[1] = target: T1, type 1 human 5α-reductase (HRED1) (Homo sapiens, UniProt P18405); experiment: Cell free assay of 5α-reductase, microsomes of rat 1A cells expressing type 1 isoenzyme (HRED1); type: biochemical; parameters: expressed in transfected cells; host or cells: rat 1A cells infected with pMV7 retrovirus; microsomes;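 note: microsomes from rat 1A cells expressing human type 1 5α-reductase, conversion of radiolabeled testosterone to dihydrotestosterone quantified by thin layer chromatography with radioanalytic scanning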
T1 sequence (P18405 1-259): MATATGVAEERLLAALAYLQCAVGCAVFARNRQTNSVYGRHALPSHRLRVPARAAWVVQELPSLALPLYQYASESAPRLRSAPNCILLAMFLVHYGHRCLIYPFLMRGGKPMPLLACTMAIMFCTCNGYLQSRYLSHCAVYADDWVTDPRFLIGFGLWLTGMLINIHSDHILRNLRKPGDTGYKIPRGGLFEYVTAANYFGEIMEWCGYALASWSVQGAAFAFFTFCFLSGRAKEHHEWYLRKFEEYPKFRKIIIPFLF

[2] = target: T2, type 2 human 5α-reductase (HRED2) (Homo sapiens, UniProt P31213); experiment: Cell free assay of 5α-reductase, microsomes of rat 1A cells expressing type 2 isoenzyme (HRED2); type: biochemical; parameters: expressed in transfected cells; host or cells: rat 1A cells infected with pMV7 retrovirus; microsomes;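 note: labeled testosterone and its product dihydrotestosterone measured in microsomal reaction extracts via thin layer chromatography plus radioanalytic scanning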
T2 sequence (P31213 1-254): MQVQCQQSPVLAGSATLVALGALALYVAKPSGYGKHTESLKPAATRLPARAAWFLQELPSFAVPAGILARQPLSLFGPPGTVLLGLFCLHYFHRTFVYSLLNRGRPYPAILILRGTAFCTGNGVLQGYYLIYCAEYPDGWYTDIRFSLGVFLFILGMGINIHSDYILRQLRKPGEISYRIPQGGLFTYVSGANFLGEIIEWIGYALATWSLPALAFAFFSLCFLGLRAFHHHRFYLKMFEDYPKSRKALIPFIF

[3] = target: T1, type 1 human 5α-reductase (HRED1); experiment: Whole cell assay of 5α-reductase, type 1 isoenzyme; type: cell-based; parameters: expressed in transfected cells; host or cells: rat 1A cells infected with pMV7 retrovirus; conditions: whole cell assay;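 note: intact rat 1A cells engineered to express the human type 1 5α-reductase isozyme serve as the enzyme source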
[4] = cell-free assay, read-out: IC50, type 1 isoenzyme
[5] = cell-free assay, read-out: IC50, type 2 isoenzyme
[6] = 100 uM, cell free assay, Table 1, read-out: HRED1 % Inhibition @ 100 uM
[7] = cell free assay, Table 1 flavanoids, read-out: HRED1 IC50
[8] = 100 uM, cell free assay, Table 1, read-out: HRED2 % Inhibition @ 100 uM
[9] = cell free assay, Table 1 flavanoids, read-out: HRED2 IC50
[10] = cell free assay, Table 2 catechols, read-out: HRED1 IC50
[11] = cell free assay, Table 2 catechols, read-out: HRED2 IC50
[12] = 100 μM, cell free assay, Table 5
[13] = cell free assay, Table 5 epigallocatechin derivatives, read-out: HRED1 IC50
[14] = cell free assay, Table 5 epigallocatechin derivatives, read-out: HRED2 IC50
[15] = 100 uM, cell free assay, Table 2
[16] = 100 μM, cell free assay, Table 4, read-out: HRED1 % Inhibition @ 100 μM
[17] = cell free assay, Table 4 quinones, read-out: HRED1 IC50
[18] = 100 μM, cell free assay, Table 4, read-out: HRED2 % Inhibition @ 100 μM
[19] = cell free assay, Table 4 quinones, read-out: HRED2 IC50
[20] = 100 μM, cell free assay, Table 4

SMILES: COc1cc(/C=C/C(=O)O)ccc1O [Ferulic Acid]
inhibition at 100 µM ([1]; 100 uM, cell free assay, Table 3, read-out: HRED1 % Inhibition @ 100 uM): 0%
IC50 ([1]; cell free assay, Table 3 curcumin and related compounds, read-out: HRED1 IC50): > 100 µM
IC50 [1, 4]: > 100 µM
inhibition at 100 µM ([2]; 100 uM, cell free assay, Table 3, read-out: HRED2 % Inhibition @ 100 uM): 18%
IC50 ([2]; cell free assay, Table 3 curcumin and related compounds, read-out: HRED2 IC50): > 100 µM
IC50 [2, 5]: > 100 µM

inhibition at 100 µM [1, 6]: 20%
IC50 [1, 7]: > 100 µM
inhibition at 100 µM [2, 8]: -52%
IC50 [2, 9]: > 100 µM
SMILES: O=c1cc(-c2ccccc2)oc2ccccc12 [Flavone]

SMILES: COc1cc2ccc(=O)oc2c(O)c1O [Fraxetin]
IC50 [1, 10]: > 100 µM
IC50 [2, 11]: > 100 µM

HRED1 % Inhibition @ 100 μM [1, 12]: 85%
IC50 [1, 13]: 48 µM
HRED2 % Inhibition @ 100 μM [2, 12]: 24%
IC50 [2, 14]: > 100 µM
SMILES: O=C(OC1Cc2c(O)cc(O)cc2OC1c1cc(O)c(O)c(O)c1)c1ccccc1 (stereo not drawn) [HZIV 74]

HRED1 % Inhibition @ 100 μM [1, 12]: 17%
IC50 [1, 13]: > 100 µM
HRED2 % Inhibition @ 100 μM [2, 12]: 0%
IC50 [2, 14]: > 100 µM
SMILES: O=C(O)OC1Cc2c(O)cc(O)cc2OC1c1cc(O)c(O)c(O)c1 (stereo not drawn) [HZIV 109]

HRED1 % Inhibition @ 100 μM [1, 12]: 99%
IC50 [1, 13]: 20 µM
HRED2 % Inhibition @ 100 μM [2, 12]: 94%
IC50 [2, 14]: 67 µM
SMILES: O=C(C=Cc1cc(O)c(O)c(O)c1)OC1Cc2c(O)cc(O)cc2OC1c1cc(O)c(O)c(O)c1 (stereo not drawn) [HZIV 134]

HRED1 % Inhibition @ 100 uM [1, 15]: 10%
IC50 [1, 10]: > 100 µM
HRED2 % Inhibition @ 100 uM [2, 15]: 6%
IC50 [2, 11]: > 100 µM
SMILES: O=C(NCCc1cc(O)c(O)c(O)c1)c1cc(O)c(O)c(O)c1 [HZIV 275]

SMILES: Oc1cc2c(cc1O)[C@@H]1c3ccc(O)c(O)c3OC[C@]1(O)C2 [Hematoxylin]
inhibition at 100 µM ([1]; 100 uM, cell free assay, Table 2, read-out: HRED1 % Inhibition @ 100 uM): 59%
IC50 [1, 10]: 83 µM
inhibition at 100 µM ([2]; 100 uM, cell free assay, Table 2, read-out: HRED2 % Inhibition @ 100 uM): 38%
IC50 [2, 11]: > 100 µM

SMILES: NCCc1cc(O)c(O)c(O)c1 [Hydroxydopamine]
HRED2 % Inhibition @ 100 uM [2, 15]: 41%

SMILES: CC(C)=CCC1=C(O)C(=O)c2ccccc2C1=O [Lapachol]
inhibition at 100 µM [1, 16]: 30%
IC50 [1, 17]: > 100 µM
inhibition at 100 µM [2, 18]: 9%
IC50 [2, 19]: > 100 µM

IC50 [1, 7]: > 100 µM
IC50 [2, 9]: > 100 µM
SMILES: O=c1c(O)c(-c2ccc(O)cc2O)oc2cc(O)cc(O)c12 [Morin]

SMILES: CC(Cc1ccc(O)c(O)c1)C(C)Cc1ccc(O)c(O)c1 (stereo not drawn) [Nordihydrogaiaretic Acid, Nordihydroguaiaretic acid]
inhibitory activity in the whole cell assay, type 1 isoenzyme, in words [3]: active
HRED2 % Inhibition @ 100 uM [2, 15]: 80%

IC50 [1, 10]: 30 µM
IC50 [2, 11]: > 100 µM
SMILES: O=c1c(O)cccc2cc(O)c(O)c(O)c12 [Purpurogallin]

IC50 [1, 10]: 15 µM
IC50 [2, 11]: > 100 µM
SMILES: O=c1ccc2c(-c3ccccc3S(=O)(=O)O)c3ccc(O)c(O)c3oc-2c1O [Pyrogallol Red]

inhibition at 100 µM [1, 16]: 26%
IC50 [1, 17]: > 100 µM
inhibition at 100 µM [2, 18]: 7%
IC50 [2, 19]: > 100 µM
SMILES: O=C1c2ccccc2C(=O)c2c(O)ccc(O)c21 [Quinizarin]

IC50 [1, 7]: > 100 µM
IC50 [1, 4]: > 100 µM
IC50 [2, 9]: > 100 µM
IC50 ([2]; read-out: IC50, type 2 isoenzyme): > 100 µM
SMILES: C[C@@H]1O[C@@H](OC[C@H]2O[C@@H](Oc3c(-c4ccc(O)c(O)c4)oc4cc(O)cc(O)c4c3=O)[C@H](O)[C@@H](O)[C@@H]2O)[C@H](O)[C@H](O)[C@H]1O [Rutin]

SMILES: CC(C)(C)c1cc(O)ccc1O [T-butylhydroxyquinone]
HRED1 % Inhibition @ 100 μM [1, 20]: 19%
IC50 [1, 17]: > 100 µM
HRED2 % Inhibition @ 100 μM [2, 20]: 4%
IC50 [2, 19]: > 100 µM

inhibition at 100 µM [1, 6]: 5%
IC50 [1, 7]: > 100 µM
IC50 [1, 4]: > 100 µM
inhibition at 100 µM [2, 8]: 5%
IC50 [2, 9]: > 100 µM
IC50 [2, 5]: > 100 µM
SMILES: O=C1c2c(O)cc(O)cc2O[C@H](c2ccc(O)c(O)c2)[C@H]1O [Taxifolin]
